In patent US12324810B2, “3, 7-diamino-10H-phenothiazine salts and their use” (WisTa Laboratories Ltd., priority 2006, dated 2025):
Read-outs that look alike come from different tables or passages of the source.

Assays:
[1] = Stability of the solid form in storage; type: physicochemical
Procedure: A batch of N,N,N′,N′-tetramethyl-10H-phenothiazine-3,7-diamine bis(hydrogen bromide) was prepared in April 2006 and analysed by NMR. […] The colour of the solid remained consistent over time. It appears that the molecule, in this form, is stable under these conditions over this time period.

[2] = biological target: T1, full-length tau (T40) in fibroblast cells (3T6) (Homo sapiens, UniProt P10636); assay: Cell-based assay for establishing EC50 (generation of the 12 kD fragment)
T1 construct: fibroblast cells (3T6) express full-length tau (“T40”) under control of an inducible promoter; low constitutive levels of the PHF-core tau fragment (12 kD fragment); expressed in transfected cells; host or cells: 3T6 fibroblast cells
Text: Briefly, fibroblast cells (3T6) express full-length tau (“T40”) under control of an inducible promoter, and low constitutive levels of the PHF-core tau fragment (12 kD fragment). When T40 expression is induced, it undergoes aggregation-dependent truncation within the cell, N-terminally at ˜αα295 and C-terminally at ˜αα390, thereby producing higher levels of the 12 kD PHF-core domain fragment. […] Indeed, the quantitation of inhibitory activity of compounds with respect to proteolytic generation of the 12 kD fragment within cells can be described entirely in terms of the same parameters that describe inhibition of tau-tau binding in vitro. That is, the extent of proteolytic generation of the 12 kD fragment within cells is determined entirely by the extent of tau-tau binding through the repeat domain. The availability of the relevant proteases within the cell is non-limiting.
Results are expressed as the concentration at which there is a 50% inhibition of generation of the 12 kD fragment. This is referred to as the EC50 value.

[3] = test system: fibroblast cells (3T6); type: cell-based; conditions: therapeutic index, RxI = LD50/EC50
Procedure: Toxicity of the compounds described herein was assessed in the cell based assay used to assess EC50. […] Alternatively, a kit from Promega UK (CytoTox 96) was used, again according to the manufacturer's instructions.

[4] = Stability in aqueous solution (percent reduced form by absorbance at 610 nm and 665 nm); type: physicochemical
Procedure: The compounds were weighed into universal containers. Enough water was added to yield a 1 mM solution, and the mixture stirred to dissolve the solid. The absorbance was determined at 610 nm and 665 nm for 50 μL samples (in triplicate) of each of the solutions at various time points. The initial time point taken was at 10 minutes as the compounds took time to dissolve completely. A UV/visible spectrum was also recorded at time points 20 minutes, 3 hours, and 18 hours.

[5] = Partition coefficient, n-octanol/water, visible spectrophotometry; type: physicochemical
Procedure: In this study, aqueous solutions of selected compounds were shaken with n-octanol and aliquots concentrations in each phase determined by visible spectrophotometry. The log10P was then calculated for each compound, using the following formula:

[6] = concentration at which there is a 50% inhibition of generation of the 12 kD fragment, 3T6 cells, read-out: EC50

T1 sequence (P10636 2-441 isoform P10636-8 limits assumed): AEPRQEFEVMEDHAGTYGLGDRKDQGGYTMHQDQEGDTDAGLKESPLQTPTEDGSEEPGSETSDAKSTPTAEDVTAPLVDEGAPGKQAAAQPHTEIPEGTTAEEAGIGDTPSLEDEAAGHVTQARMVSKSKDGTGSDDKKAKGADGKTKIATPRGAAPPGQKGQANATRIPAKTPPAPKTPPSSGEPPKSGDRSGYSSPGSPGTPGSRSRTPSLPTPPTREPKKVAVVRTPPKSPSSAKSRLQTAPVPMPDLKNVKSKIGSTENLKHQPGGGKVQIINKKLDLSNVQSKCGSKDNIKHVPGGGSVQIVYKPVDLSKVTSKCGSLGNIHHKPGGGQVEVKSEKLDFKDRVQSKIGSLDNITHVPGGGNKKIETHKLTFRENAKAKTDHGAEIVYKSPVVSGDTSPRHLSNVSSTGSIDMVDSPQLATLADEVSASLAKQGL

Row | Structure (SMILES) | RxI [3] | Log10P [5] | EC50 [2, 6] [µM] | other results
1 | CN(C)c1ccc2c(c1)Sc1cc(N(C)C)ccc1N2 [N,N,N′,N′-Tetramethyl-10H-phenothiazine-3,7-diamine bis(hydrogen bromide] | – | – | – | stability of solid after storage (NMR, colour) ([1]; solid, 10 months of storage in the dark at room temperature): stable
2 | CN(C)c1ccc2c(c1)Sc1cc(N(C)C)ccc1N2 [Compound B6, N,N,N′,N′-Tetramethyl-10H-phenothiazine-3,7-diamine bis(hydrogen iodide)] | 303 | −0.498 | – | EC50 [2]: 0.38 µM; time remaining substantially stable (>50% reduced form) ([4]; 1 mM solution in water): ~3 h; rate of autoxidation ([4]; aqueous solution, compared to the chloride compound (Compound B3)): slower
3 | CN(C)c1ccc2c(c1)Sc1cc(N(C)C)ccc1N2 [Compound B3, N,N,N′,N′-Tetramethyl-10H-phenothiazine-3,7-diamine bis(hydrogen chloride)] | 88 | −0.13 | 0.5 | state of solid form after storage ([1]; solid form, after 2 years in storage): substantially reduced
4 | Nc1ccc2c(c1)Sc1cc(N)ccc1N2 [Compound B4, 3,7-Diamino-phenothiazine bis(hydrogen chloride)] | – | – | 2.23 | –
